The values that follow are results of earlier work, collected in EP3569066A1, “ECOLOGICAL FORMULA HAVING MULTIPLE ANTIMICROBIAL ACTION (BACTERICIDAL, FUNGICIDAL AND ANTI-VIRAL) BASED ON COMMERCIAL MOLECULES” (Arias Dipre, Juan José, priority 2017, dated 2018).

The conditions of the data set: 0.1N solution.

Like-named read-outs stand apart in the source and are kept apart here.

As for `O=C(O)CC(O)(CC(=O)O)C(=O)O` [Ingredient 1, 2-HYDROXY-1, 2, 3 TRI[…]], the pH is 2.2. Moreover, the pH (listed as E) was 2.2 (0.1 N).
